In US8106055B2, “Substituted amide compounds” (Gruenenthal GmbH, priority 2007, dated 2012):
Where two headings read alike, the source gives them in different places.

What was measured:
human μ opiate receptor = molecular target: T1, human μ opiate receptor (Homo sapiens, UniProt P35372); assay: Affinity for the human μ opiate receptor ([3H]-naloxone displacement, CHO-K1 receptor membrane preparation, SPA); type: binding
T1 construct: purchased PerkinElmer Life Sciences, Zaventem, Belgium RB-HOM; host or cells: CHO-K1 cells (membrane preparation)
T1 sequence (P35372 whole entry): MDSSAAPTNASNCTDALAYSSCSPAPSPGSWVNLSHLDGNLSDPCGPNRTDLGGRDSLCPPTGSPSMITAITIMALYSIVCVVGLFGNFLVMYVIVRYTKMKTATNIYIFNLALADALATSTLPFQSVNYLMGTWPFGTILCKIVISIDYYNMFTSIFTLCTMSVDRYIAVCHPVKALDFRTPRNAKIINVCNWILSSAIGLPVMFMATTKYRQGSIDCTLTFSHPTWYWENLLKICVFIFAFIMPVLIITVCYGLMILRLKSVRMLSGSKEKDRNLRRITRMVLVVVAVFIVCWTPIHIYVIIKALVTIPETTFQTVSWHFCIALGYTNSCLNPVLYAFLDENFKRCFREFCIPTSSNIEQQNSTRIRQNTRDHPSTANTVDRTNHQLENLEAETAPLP
Outline: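 Readout is percent displacement of [3H]-naloxone (1 nmol/l) from human μ receptor in CHO-K1 membranes, measured at 1 μmol/l compound. Incubation runs 90 minutes at room temperature with WGA-SPA beads in Tris-HCl/BSA buffer; non-specific binding is defined with 100 μmol/l naloxone.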

[1] = molecular target: T2, serotonin (5-HT) reuptake (Rattus norvegicus, UniProt P31652); assay: Inhibition of serotonin (5HT) reuptake in synaptosomes from rat brain; type: biochemical
T2 construct: synaptosomes are freshly isolated from areas of the rat brain; from tissue; host or cells: rat brain synaptosomes (P2 fraction)
T2 sequence (P31652 whole entry): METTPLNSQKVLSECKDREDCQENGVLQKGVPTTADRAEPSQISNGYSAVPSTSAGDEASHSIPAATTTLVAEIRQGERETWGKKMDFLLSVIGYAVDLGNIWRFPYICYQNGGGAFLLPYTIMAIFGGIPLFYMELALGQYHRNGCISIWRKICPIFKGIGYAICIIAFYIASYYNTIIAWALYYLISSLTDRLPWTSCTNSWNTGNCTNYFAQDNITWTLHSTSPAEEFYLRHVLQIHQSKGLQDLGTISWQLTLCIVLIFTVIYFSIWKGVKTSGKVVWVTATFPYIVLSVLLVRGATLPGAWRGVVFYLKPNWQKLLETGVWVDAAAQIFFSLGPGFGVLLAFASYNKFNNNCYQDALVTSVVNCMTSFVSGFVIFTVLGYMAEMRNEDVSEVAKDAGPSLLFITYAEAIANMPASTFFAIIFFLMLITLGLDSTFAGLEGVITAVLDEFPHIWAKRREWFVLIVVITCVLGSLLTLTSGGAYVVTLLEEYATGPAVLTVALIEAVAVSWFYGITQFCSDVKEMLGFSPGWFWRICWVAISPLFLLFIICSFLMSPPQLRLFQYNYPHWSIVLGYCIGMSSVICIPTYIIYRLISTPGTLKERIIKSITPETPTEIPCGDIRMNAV
Procedure: Binding data of the compounds on the μ opioid receptor and data on the inhibition of reuptake of serotonin (5-HT) are given in Table 1. The data for the μ receptor were measured at a test concentration of 1 μM, and those for the serotonin reuptake at 10 μM. The values are stated in % inhibition.
Inhibition of Serotonin (5HT) Reuptake
In order to be able to carry out these in vitro studies, synaptosomes are freshly isolated from areas of the rat brain. In each case a so-called “P2” fraction prepared in accordance with the instructions of Gray and Whittaker (E. G. Gray and V. P. Whittaker (1962) J. Anat. 76, 79-88) is prepared. For the NA uptake, these vesicular particles are isolated from the hypothalamus of male rat brains.
A detailed description of the method can be found in the literature (M. Ch. Frink, H.-H. Hennies, W. Englberger, M. Haurand and B. Wilffert (1996) Arzneim.-Forsch./Drug Res. 46 (III), 11, 1029-1036).

[2] = molecular target: T3, human bradykinin 1 receptor (B1R) (Homo sapiens, UniProt P46663); assay: Functional investigation on the human bradykinin 1 receptor (B1R), Ca2+ FLIPR assay in CHO K1 hB1R cells; type: cell-based; settings: for B1R Ant. h [10 μM] % Inhibition: B1R antagonism human
T3 construct: expressed in transfected cells; host or cells: CHO K1 cells
T3 sequence (P46663 1-353): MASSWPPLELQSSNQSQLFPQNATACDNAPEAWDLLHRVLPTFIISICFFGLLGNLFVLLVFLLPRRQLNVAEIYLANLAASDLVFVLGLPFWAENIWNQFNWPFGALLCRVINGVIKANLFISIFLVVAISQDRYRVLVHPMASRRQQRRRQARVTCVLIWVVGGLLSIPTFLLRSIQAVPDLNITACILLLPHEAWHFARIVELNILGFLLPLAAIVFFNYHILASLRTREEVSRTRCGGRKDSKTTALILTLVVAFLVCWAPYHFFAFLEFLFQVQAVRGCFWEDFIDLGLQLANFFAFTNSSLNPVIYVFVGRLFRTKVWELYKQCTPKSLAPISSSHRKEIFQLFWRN
Outline: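 Stably transfected CHO K1 cells loaded with Fluo-4; FLIPR Ca2+ fluorescence peak (ex 488/em 540 nm). Compound added first (agonism vs Lys-Des-Arg9-bradykinin ≥50 nM human, Des-Arg9-bradykinin 10 μM rat), then after 10-20 min agonist at EC80; antagonism as % inhibition, IC50 from concentration series, n=2-3, N≥2.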

[3] = test concentration of 1 μM, read-out: μ (binding on the μ opioid receptor, % inhibition)
[4] = test concentration of 10 μM, read-out: 5-HT (inhibition of reuptake of serotonin, % inhibition)
[5] = CHO-K1, B1R antagonism human, test substance 10 μM, Ca2+ FLIPR, CHO K1 hB1R cells, read-out: B1R Ant. h [10 μM] % Inhibition
[6] = test substance 10 μM, Ca2+ FLIPR, CHO K1 hB1R cells
[7] = 1.5 h, Table 2, test concentration 1 μM, read-out: μ receptor
[8] = Table 2, test concentration 10 μM, read-out: 5-HT reuptake

CN(C)C(c1ccccc1)C1CCC(NC(=O)COC2CCCN(S(=O)(=O)c3ccccc3)C2)CC1 (stereo not drawn) [Example 109, N-(4-((dimethylamino)(phenyl)methyl)cyclohexyl)-2-(1-(phenylsulfonyl)piperidin-3-yloxy)acetamide]
inhibition at 1 µM (human μ opiate receptor; [3]): 89% | inhibition at 10 µM [1, 4]: 87% | inhibition at 10 µM [2, 5]: 26%

CN(C)C(c1ccccc1)C1CCC(NC(=O)COCCC2CCN(S(=O)(=O)c3ccccc3)CC2)CC1 (stereo not drawn) [Example 124, N-(4-((dimethylamino)(phenyl)methyl)cyclohexyl)-2-(2-(1-(phenylsulfonyl)piperidin-4-yl)ethoxy)acetamide]
inhibition at 1 µM (human μ opiate receptor; [3]): 87% | inhibition at 10 µM [1, 4]: 89% | inhibition at 10 µM [2, 5]: 9%

COc1ccc(S(=O)(=O)N2CCCCC2COCC(=O)NC2CCC(C(c3ccccc3)N(C)C)CC2)cc1 (stereo not drawn) [Example 154, N-(4-((dimethylamino)(phenyl)methyl)cyclohexyl)-2-((1-(4-methoxyphenylsulfonyl)piperidin-2-yl)methoxy)acetamide]
inhibition at 1 µM (human μ opiate receptor; [3]): 83% | inhibition at 10 µM [1, 4]: 90% | inhibition at 10 µM ([2]; CHO-K1, read-out: B1R Ant. h [10 μM] % Inhibition): 69%

COc1cc(C)c(S(=O)(=O)N(C)CCOCC(=O)NC2CCC(C(c3cccc(F)c3)N(C)C)CC2)c(C)c1C (stereo not drawn) [Example 159, N-(4-((dimethylamino)(3-fluorophenyl)methyl)cyclohexyl)-2-(2-(4-methoxy-N,2,3,6-tetramethylphenylsulfonamido)ethoxy)acetamide]
inhibition at 1 µM (human μ opiate receptor; [3]): 85% | inhibition at 10 µM [1, 4]: 72% | inhibition at 10 µM [2, 5]: 91%

COc1cc(C)c(S(=O)(=O)N(C)CCOCC(=O)NCC2CCC(C(c3cccc(F)c3)N(C)C)CC2)c(C)c1C (stereo not drawn) [Example 160, N-((4-((dimethylamino)(3-fluorophenyl)methyl)cyclohexyl)methyl)-2-(2-(4-methoxy-N,2,3,6-tetramethylphenylsulfonamido)ethoxy)acetamide]
inhibition at 1 µM (human μ opiate receptor; [3]): 88% | inhibition at 10 µM [1, 4]: 80% | inhibition at 10 µM [2, 5]: 98%

CN(C)C(c1ccccc1)C1CCC(NC(=O)COc2ccccc2N(C)S(=O)(=O)c2ccc(Cl)c(Cl)c2)CC1 (stereo not drawn) [Example 166, 2-(2-(3,4-dichloro-N-methylphenylsulfonamido)phenoxy)-N-(4-((dimethylamino)(phenyl)methyl)cyclohexyl)acetamide]
inhibition at 1 µM (human μ opiate receptor; [3]): 87% | inhibition at 10 µM [1, 4]: 91% | inhibition at 10 µM [2, 5]: 74%

COc1ccc(S(=O)(=O)N2CCCCC2COCC(=O)NC2CCC(C(c3ccccc3)N(C)C)CC2)c(OC)c1 (stereo not drawn) [Example 187, 2-((1-(2,4-dimethoxyphenylsulfonyl)piperidin-2-yl)methoxy)-N-(4-((dimethylamino)(phenyl)methyl)cyclohexyl)acetamide]
inhibition at 1 µM (human μ opiate receptor; [3]): 79% | inhibition at 10 µM [1, 4]: 81% | inhibition at 10 µM [2, 5]: -6%

COc1ccc(S(=O)(=O)N2CCCCC2COCC(=O)NC2CCC(C(c3ccccc3)N(C)C)CC2)cc1OC (stereo not drawn) [Example 198, 2-((1-(3,4-dimethoxyphenylsulfonyl)piperidin-2-yl)methoxy)-N-(4-((dimethylamino)(phenyl)methyl)cyclohexyl)acetamide]
inhibition at 1 µM (human μ opiate receptor; [3]): 78% | inhibition at 10 µM [1, 4]: 88% | inhibition at 10 µM [2, 5]: -12%

CN(C)C(c1ccccc1)C1CCC(NC(=O)COC2CCN(S(=O)(=O)c3ccccc3)CC2)CC1 (stereo not drawn) [Example 257]
μ (binding on the μ opioid receptor, % inhibition) (human μ opiate receptor; test concentration of 1 μM): 74% | 5-HT (inhibition of reuptake of serotonin, % inhibition) ([1]; test concentration of 10 μM): 86% | B1R Ant. h [10 μM] % Inhibition [2, 6]: 26%

CN(C)C(c1ccccc1)C1CCC(NC(=O)COCc2c(N(C)S(=O)(=O)c3ccc(Cl)c(Cl)c3)sc3c2CCCC3)CC1 (stereo not drawn) [Example 369]
μ (binding on the μ opioid receptor, % inhibition) (human μ opiate receptor; test concentration of 1 μM): 66% | 5-HT (inhibition of reuptake of serotonin, % inhibition) ([1]; test concentration of 10 μM): 66% | B1R Ant. h [10 μM] % Inhibition [2, 6]: 21%

COc1cc(C)c(S(=O)(=O)N(C)CCOCC(=O)NC2CCC(C(c3ccc(F)cc3)N(C)C)CC2)c(C)c1C (stereo not drawn) [Example 380]
μ (binding on the μ opioid receptor, % inhibition) (human μ opiate receptor; test concentration of 1 μM): 55% | 5-HT (inhibition of reuptake of serotonin, % inhibition) ([1]; test concentration of 10 μM): 81% | B1R Ant. h [10 μM] % Inhibition [2, 6]: 86%

Cc1cc(C)c(S(=O)(=O)N(C)CCOCC(=O)NCCC2CCC(C(c3cccs3)N(C)C)CC2)c(C)c1 (stereo not drawn) [Example 385]
μ (binding on the μ opioid receptor, % inhibition) (human μ opiate receptor; test concentration of 1 μM): 59% | 5-HT (inhibition of reuptake of serotonin, % inhibition) ([1]; test concentration of 10 μM): 93% | B1R Ant. h [10 μM] % Inhibition [2, 6]: 15%

Cc1cc(C)c(S(=O)(=O)N(C)CCOCC(=O)NCCC2CCC(C(c3ccc(F)cc3)N(C)C)CC2)c(C)c1 (stereo not drawn) [Example 417]
μ (binding on the μ opioid receptor, % inhibition) (human μ opiate receptor; test concentration of 1 μM): 60% | 5-HT (inhibition of reuptake of serotonin, % inhibition) ([1]; test concentration of 10 μM): 91% | B1R Ant. h [10 μM] % Inhibition [2, 6]: 100%

COc1cc(C)c(S(=O)(=O)N(C)CCOCC(=O)NCC2CCC(C(CCc3ccccc3)N(C)C)CC2)c(C)c1C (stereo not drawn) [Example 453]
μ (binding on the μ opioid receptor, % inhibition) (human μ opiate receptor; test concentration of 1 μM): 46% | 5-HT (inhibition of reuptake of serotonin, % inhibition) ([1]; test concentration of 10 μM): 89% | B1R Ant. h [10 μM] % Inhibition [2, 6]: 97%

CN(C)C(c1cccs1)C1CCC(CCNC(=O)COCCN(C)S(=O)(=O)c2c(F)c(F)c(F)c(F)c2F)CC1 (stereo not drawn) [Example 465]
μ (binding on the μ opioid receptor, % inhibition) (human μ opiate receptor; test concentration of 1 μM): 48% | 5-HT (inhibition of reuptake of serotonin, % inhibition) ([1]; test concentration of 10 μM): 72% | B1R Ant. h [10 μM] % Inhibition [2, 6]: −3%

COc1cc(C)c(S(=O)(=O)N(CCOCC(=O)NC2CCC(C(c3ccccc3)N(C)C)CC2)Cc2ccccc2)c(C)c1 (stereo not drawn) [Example 483]
μ (binding on the μ opioid receptor, % inhibition) (human μ opiate receptor; test concentration of 1 μM): 38% | 5-HT (inhibition of reuptake of serotonin, % inhibition) ([1]; test concentration of 10 μM): 65% | B1R Ant. h [10 μM] % Inhibition [2, 6]: 34%

CN(C)C(c1ccccc1)C1CCC(NC(=O)COCCN(C)S(=O)(=O)c2c(Cl)cc(Cl)cc2Cl)CC1 (stereo not drawn) [Example 598, N-[4-(dimethylaminophenylmethyl)-cyclohexyl]-2-{2-[methyl-(2,4,6-trichlorobenzenesulfonyl)-amino]-ethoxy}-acetamide]
inhibition at 1 µM (human μ opiate receptor; [7]): 91% | inhibition at 10 µM [1, 8]: 75% | B1R Ant. h [10 μM] % Inhibition [2, 6]: 86%

CN(Cc1ccccc1)C(c1ccccc1)C1CCC(NC(=O)COCCN(C)S(=O)(=O)c2c(Cl)cc(Cl)cc2Cl)CC1 (stereo not drawn) [Example 599, N-{4-[(benzylmethylamino)-phenylmethyl]-cyclohexyl}-2-{2-[methyl-(2,4,6-trichlorobenzenesulfonyl)-amino]-ethoxy}-acetamide]
inhibition at 1 µM (human μ opiate receptor; [7]): 91% | inhibition at 10 µM [1, 8]: 33% | inhibition at 10 µM [2, 5]: -6%

CN(C)C(c1ccccc1)C1CCC(NC(=O)COCCN(C2CC2)S(=O)(=O)c2c(Cl)cc(Cl)cc2Cl)CC1 (stereo not drawn) [Example 600, 2-{2-[cyclopropyl-(2,4,6-trichlorobenzenesulfonyl)-amino]-ethoxy}-N-[4-(dimethylaminophenylmethyl)-cyclohexyl]-acetamide]
inhibition at 1 µM (human μ opiate receptor; [7]): 95% | inhibition at 10 µM [1, 8]: 60% | inhibition at 10 µM [2, 5]: 101%

CN(CCOCC(=O)NC1CCC(C(c2ccccc2)N2CCCCC2)CC1)S(=O)(=O)c1c(Cl)cc(Cl)cc1Cl (stereo not drawn) [Example 601, 2-{2-[methyl-(2,4,6-trichlorobenzenesulfonyl)-amino]-ethoxy}-N-[4-(phenylpiperidin-1-yl-methyl)-cyclohexyl]-acetamide]
inhibition at 1 µM (human μ opiate receptor; [7]): 45% | inhibition at 10 µM [1, 8]: 75% | inhibition at 10 µM [2, 5]: 78%

O=C(COCCN(C1CC1)S(=O)(=O)c1c(Cl)cc(Cl)cc1Cl)NC1CCC(C(c2ccccc2)N2CCCCC2)CC1 (stereo not drawn) [Example 602, 2-{2-[cyclopropyl-(2,4,6-trichlorobenzenesulfonyl)-amino]-ethoxy}-N-[4-(phenylpiperidin-1-ylmethyl)-cyclohexyl]-acetamide]
inhibition at 1 µM (human μ opiate receptor; [7]): 55% | inhibition at 10 µM [1, 8]: 51% | inhibition at 10 µM [2, 5]: 81%
